Measurements published in patent US6841577B2, “Pesticidal activity of plant essential oils and their constituents” (Ecosmart Technologies, Inc., priority 1999, dated 2005).
Like-named read-outs stand apart in the source and are kept apart here.

What was measured:
[1] = system: larvae; experiment: Feeding deterrence of carvacrol; assay type: in vivo; conditions: on doubling the concentration
Excerpt: FIG. 6 is a graph of the feeding deterrence of carvacrol vs. larvae.
The 5-blend can be considered as a relatively broad spectrum pesticide. […] The effect of concentration of the pesticide is shown in […] where a doubling in the concentration of carvacrol produces a 3-4 fold increase in deterrence of feeding.

[2] = system: octopamine receptor sites; experiment: 3H-OA binding to ventral nerve cord / synaptosomal membrane protein; parameters: species or system American cockroach (Periplaneta americana); conditions: for classification with respect to octopamine receptor sites (OAR): based on the binding data of Tables 1-3; for cpm 3H-OA/500 μg protein: Table 3
Method: Different concentrations of unlabeled octopamine (OA) (20, 30, 40, 50, 60, 100 ng) were tested on the binding activity as a positive control. Test chemicals were dissolved in acetone before the assay. Different concentrations of the test chemicals were added directly to the protein preparation from ventral nerve cord. The same amount of solvent (1 μl 0.1%) were added to the control samples. All assays with test chemicals were run in the presence and absence of 50 ng OA. All chemicals were added to the protein extract 20 min prior the addition of radio labeled ^3H-OA(100,000 cpm/sample). After 30 min at 24° C. of the addition of ^3H-OA, the reaction was stopped by the addition of ice-cold Tris buffer, and the samples were filtered through GF/C membrane using water vacuum. After two washes each with 5 ml Tris buffer, the membrane was removed, air dried and the radioactivity was counted in 4 ml liquid scintillation solution. The specific binding was calculated as the difference between the values in the presence and absence of unlabeled OA. All data are calculated as the mean±standard deviation of 5 assays.
Additional tests were conducted on radio labeled octopamine using other purified naturally occurring materials as given in Tables 2 and 3.

[3] = system: American cockroach; experiment: Cross walk jar test on pre-treated surface; assay type: in vivo; conditions: for pesticidal activity against cockroaches, in words: in vivo
Method: In the test, a known amount of the test material was dissolved in a known volume of acetone and applied to small jars and all inner bottom surfaces were covered. The bottom surface of each jar is approximately 250 cm^2. One hour after the acetone had completely evaporated, five American cockroaches were introduced to each jar. Control jars were treated exactly as above but with the known amount of acetone only.
The results of the “cross walk” jar tests are in Table 8 in which the “4-blend” was dispersed as an aerosol and a dust in the jar.
In this test, the acetone solution of the test material was placed in the jar and the roach inserted into the jar after the acetone had evaporated.
Mortality was measured 24 hours after exposure.
The “4-blend” and the individual constituents of the “4-blend” were tested using 10 cockroaches for each “cross walk” treatment. In addition, pyrethrins were tested separately and mixed with the various components.
A concentration of 100 mg/jar was used for each individual alone. In the co-treatment experiment without pyrethrins, 20 mg/jar for each chemical was used. In the cotreatment experiment with pyrethrins, 20 mg/jar for the naturally occurring plant material was used. Pyrethrins was used at 2 mg/jar. […] It was noted above that the mortality is dependent upon concentration. […] Some synergism is found between pyrethrins and either α-terpineol or benzyl alcohol.

[4] = system: 2nd instar green peach aphid nymphs; experiment: Cabbage leaf disc bioassay; assay type: in vivo
Method: A bioassay similar to that for S. litura larvae was used for additional larvae. Cabbage leaf discs were dipped in emulsified aqueous solutions, diluted 1:200 in water, on which 2nd instar green peach aphid nymphs were placed. For each treatment there was 10 aphids per disc with 5 replicates; each experiment was replicated in time (successive days) from 3-5 times. After 24 hours, aphids were reported as being (1) on the leaf disc and feeding; (2) alive, but walking off the disc; or (3) dead. In the field, aphids which cease feeding and abandon a host plant are very unlikely to survive.

[5] = system: 3rd instar Asian armyworms (Spodoptera litura); conditions: for Mortality (%): control 0
Method: Additional synergistic testing was conducted on 3rd instar Asian armyworms (Spodoptera litura). […] The number of replicates is given as “n”.

[6] = 500 ng/ml, solvent control 1385 ± 101

| SMILES | classification with respect to octopamine receptor sites (OAR) [2] | mortality at 10 mg ([3]; Periplaneta americana, 24 h) [%] | mortality at 20 mg ([3]; Periplaneta americana, 24 h) [%] | mortality at 40 mg ([3]; Periplaneta americana, 24 h) [%] | mortality at 50 mg ([3]; Periplaneta americana, 24 h) [%] | mortality at 100 mg ([3]; Periplaneta americana, 24 h) [%] | pesticidal activity against cockroaches, in words [3] | cpm 3H-OA/500 μg protein [2, 6] [cpm 3H-OA/500 μg protein] | other results |
| --- | --- | --- | --- | --- | --- | --- | --- | --- | --- |
| Cc1ccc(C(C)C)cc1O [Carvacol, Carvacrol] | OAR Agonists | 0 | 20 | 50 | 80 | 100 | high pesticidal activity |  | increase in deterrence of feeding [1]: 3-4 fold; agonist/antagonist note to 3H-OA binding ([2]; 1000 ng/ml): agonist; dpm 3H-OA/500 μg protein ([2]; 1000 ng/ml, Table 2, solvent control 930 ± 89): 2366 ± 149 dpm 3H-OA/500 μg protein |
| CCC(=O)OCCc1ccccc1 [Phenethyl propionate] | extremely high OAR antagonists | 30 | 40 | 90 | 100 | 100 | high pesticidal activity | 0173 ± 022 | activity on green peach aphid nymphs, in words ([4]; 1:200 dilution): essentially inactive; Percentage of aphids Dead ([4]; n = 250, Table 17, control 8.7): 13.3%; Percentage of aphids Walking (off disc) ([4]; n = 250, Table 17, control 15.3): 25.3%; Percentage of aphids Feeding ([4]; n = 250, Table 17, control 76.0): 62.0%; activity on Asian armyworms, in words ([5]; in vivo): relatively low activity; activity/binding at octopamine receptor sites, in words [2]: antagonists which are most strongly bound; agonist/antagonist note to 3H-OA binding ([2]; 500 ng/ml): antagonist; mortality at 30 mg ([3]; Periplaneta americana, 24 h): 60% |
| Cc1ccc(C(C)C)c(O)c1 [Thymol] | Non-OAR Specific Toxicants |  |  | 80 |  | 100 |  | 1310 ± 91 | Mortality (%) ([5]; diluted 1:400 with water, n = 50, Table 12): 98%; Mortality (%) ([5]; dilution rate 1:500, n = 150, Table 14 right): 24.5%; Mortality (%) ([5]; n = 50, Table 13 right, 1:500 printed for Thymol only): 29%; cpm 3H-OA/500 μg protein ([2]; 1000 ng/ml, solvent control 1915 ± 110): 806 ± 71 cpm 3H-OA/500 μg protein |
